Patent publication US12679878B2, “CRF2 receptor agonists and their use in therapy” (SANOFI, priority 2020, dated 2026)
Starred links: 1 amine or outer side, 2 acyl side, 3 side chain; linkers in the order of their positions; H or OH if unused. Non-standard residues stand in square brackets, D forms with d. Residues, ends and D or L forms follow the SMILES beside them. Groups on a side chain read outwards from the residue. *: point of attachment. γGlu = O=C(O)[C@H](CCC(=O)[*:2])N[*:1]; Palmitoyl = CCCCCCCCCCCCCCCC(=O)*; AEEA = NCCOCCOCC(=O)O; Aib = CC(C)(N)C(=O)O

target: T1, human CRF2α receptor (Homo sapiens, UniProt Q13324); experiment: cAMP agonism at human CRF2α receptor in TeloHEAC cells, FA modified peptides (Example 19.9); type: cell-based; conditions: 0% HSA, relative to urocortin 2
T1 construct: expressed in transfected cells; host or cells: TeloHEAC
T1 sequence (Q13324 1-411): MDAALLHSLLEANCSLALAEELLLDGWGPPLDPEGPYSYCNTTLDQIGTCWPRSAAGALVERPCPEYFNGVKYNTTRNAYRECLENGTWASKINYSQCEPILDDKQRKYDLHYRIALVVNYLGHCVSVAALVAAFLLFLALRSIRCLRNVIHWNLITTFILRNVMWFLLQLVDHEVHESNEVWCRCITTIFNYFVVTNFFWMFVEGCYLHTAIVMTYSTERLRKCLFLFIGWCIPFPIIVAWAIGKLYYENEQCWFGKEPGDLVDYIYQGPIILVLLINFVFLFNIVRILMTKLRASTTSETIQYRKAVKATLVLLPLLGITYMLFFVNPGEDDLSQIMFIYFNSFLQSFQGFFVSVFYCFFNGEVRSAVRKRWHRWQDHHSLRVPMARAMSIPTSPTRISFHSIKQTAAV
Experimental: Agonism of compounds for human corticotropin-releasing factor 2α (CRF2α receptor) was determined by a functional assay measuring cAMP modulation upon treatment of TeloHEAC cells stably expressing human CRF2α receptor.
Compounds were dissolved at 0.5 mM in 100% DMSO and serially diluted (1:2) in 100% DMSO for 16 dilutions. 20 nL of each dilution was then transferred to 384-well assay plate using an acoustic droplet ejection instrument. 5 μL of compound buffer (1×HBSS; 20 mM HEPES, 2 mM IBMX, 0% or 0.2% HSA) were then added to each well.
Prior to use, frozen cells were thawed quickly at 37° C. and washed (5 min at 900 rpm) with 20 mL cell buffer (1×HBSS; 20 mM HEPES). Cells were resuspended in cell buffer and adjusted to a cell density of 800.000 cells/ml.
5 μL cells (final dell density: 4000 cells/well) were dispensed in the compound-containing 384-well assay plate and incubated for 30 minutes 37° C.
The CAMP level in treated cells was determined using the Cisbio 62AM4PEC kit according to manufacturer's instruction. Finally, plates were incubated for 1 h at room temperature before measuring the fluorescence ratio between 665/620 nm.
The percent activity value (E %) was calculated by setting 100 nM of urocortin 2 (UCN2) as 100%. The in vitro potency of the compounds was quantified by determining the concentrations that caused 50% activation of maximal response (EC50) relative to urocortin 2.

Row | Structure (SMILES) | EC50 [nM]
1 | CCCCCCCCCCCCCCCC(=O)N[C@@H](CCC(=O)NCCOCCOCC(=O)NCCOCCOCC(=O)NCCCC[C@H](NC(=O)[C@H](CC(C)C)NC(=O)[C@H](CCCCN)NC(=O)[C@@H](NC(=O)[C@@H]1CCCN1C(=O)[C@H](NC(=O)[C@H](CC(=O)O)NC(=O)[C@H](CC(C)C)NC(=O)[C@H](CO)NC(=O)[C@H](CC(C)C)NC(=O)[C@@H](NC(=O)[C@@H](N)[C@@H](C)CC)C(C)C)C(C)C)[C@@H](C)CC)C(=O)N[C@@H](CCC(N)=O)C(=O)N[C@H](C(=O)N[C@@H](CC(C)C)C(=O)N[C@@H](CC(C)C)C(=O)N[C@@H](CCCCN)C(=O)N[C@@H](CCC(N)=O)C(=O)N[C@@H](CCC(=O)O)C(=O)N[C@@H](CCCNC(=N)N)C(=O)N[C@@H](CCC(N)=O)C(=O)N[C@@H](CCCCN)C(=O)N[C@@H](CCCCN)C(=O)NC(C)(C)C(=O)N[C@@H](CCCNC(=N)N)C(=O)N[C@@H](CCC(N)=O)C(=O)N[C@@H](CCCCN)C(=O)N[C@@H](C)C(=O)N[C@@H](CCC(=O)O)C(=O)N[C@@H](CCCCN)C(=O)N[C@@H](CC(N)=O)C(=O)N[C@@H](CCCCN)C(=O)N[C@@H](CCC(N)=O)C(=O)N[C@H](C(=O)N[C@@H](CC(C)C)C(=O)N[C@@H](C)C(=O)N[C@@H](CCC(N)=O)C(=O)N[C@H](C(N)=O)C(C)C)[C@@H](C)CC)[C@@H](C)CC)C(=O)O [compound 210] (H-IVLSLD[dV]PIKLK([AEEA-AEEA-γGlu-Palmitoyl])QILLKQERQKK[Aib]RQKAEKNKQILAQV-NH2) | 2.98
2 | CCCCCCCCCCCCCCCC(=O)N[C@@H](CCC(=O)N[C@@H](CCC(=O)NCCOCCOCC(=O)NCCOCCOCC(=O)NCCCC[C@H](NC(=O)[C@H](CC(C)C)NC(=O)[C@H](CCCCN)NC(=O)[C@@H](NC(=O)[C@@H]1CCCN1C(=O)[C@H](NC(=O)[C@H](CC(=O)O)NC(=O)[C@H](CC(C)C)NC(=O)[C@H](CO)NC(=O)[C@H](CC(C)C)NC(=O)[C@@H](NC(=O)[C@@H](N)[C@@H](C)CC)C(C)C)C(C)C)[C@@H](C)CC)C(=O)N[C@@H](CCC(N)=O)C(=O)N[C@H](C(=O)N[C@@H](CC(C)C)C(=O)N[C@@H](CC(C)C)C(=O)N[C@@H](CCCCN)C(=O)N[C@@H](CCC(N)=O)C(=O)N[C@@H](CCC(=O)O)C(=O)N[C@@H](CCCNC(=N)N)C(=O)N[C@@H](CCC(N)=O)C(=O)N[C@@H](CCCCN)C(=O)N[C@@H](CCCCN)C(=O)NC(C)(C)C(=O)N[C@@H](CCCNC(=N)N)C(=O)N[C@@H](CCC(N)=O)C(=O)N[C@@H](CCCCN)C(=O)N[C@@H](C)C(=O)N[C@@H](CCC(=O)O)C(=O)N[C@@H](CCCCN)C(=O)N[C@@H](CC(N)=O)C(=O)N[C@@H](CCCCN)C(=O)N[C@@H](CCC(N)=O)C(=O)N[C@H](C(=O)N[C@@H](CC(C)C)C(=O)N[C@@H](C)C(=O)N[C@@H](CCC(N)=O)C(=O)N[C@H](C(N)=O)C(C)C)[C@@H](C)CC)[C@@H](C)CC)C(=O)O)C(=O)O [compound 211] (H-IVLSLD[dV]PIKLK([AEEA-AEEA-γGlu-γGlu-Palmitoyl])QILLKQERQKK[Aib]RQKAEKNKQILAQV-NH2) | 0.94
3 | CCCCCCCCCCCCCCCC(=O)N[C@@H](CCC(=O)NCCCC[C@H](NC(=O)[C@H](CC(C)C)NC(=O)[C@H](CCCCN)NC(=O)[C@@H](NC(=O)[C@@H]1CCCN1C(=O)[C@H](NC(=O)[C@H](CC(=O)O)NC(=O)[C@H](CC(C)C)NC(=O)[C@H](CO)NC(=O)[C@H](CC(C)C)NC(=O)[C@@H](NC(=O)[C@@H](N)[C@@H](C)CC)C(C)C)C(C)C)[C@@H](C)CC)C(=O)N[C@@H](CCC(N)=O)C(=O)N[C@H](C(=O)N[C@@H](CC(C)C)C(=O)N[C@@H](CC(C)C)C(=O)N[C@@H](CCCCN)C(=O)N[C@@H](CCC(N)=O)C(=O)N[C@@H](CCC(=O)O)C(=O)N[C@@H](CCCNC(=N)N)C(=O)N[C@@H](CCC(N)=O)C(=O)N[C@@H](CCCCN)C(=O)N[C@@H](CCCCN)C(=O)N[C@@H](CCC(N)=O)C(=O)N[C@@H](CCCNC(=N)N)C(=O)N[C@@H](CCC(=O)O)C(=O)N[C@@H](CCCCN)C(=O)N[C@@H](C)C(=O)N[C@@H](CCC(=O)O)C(=O)N[C@@H](CCCCN)C(=O)N[C@@H](CC(N)=O)C(=O)N[C@@H](CCCCN)C(=O)N[C@@H](CCC(N)=O)C(=O)N[C@H](C(=O)N[C@@H](CC(C)C)C(=O)N[C@@H](C)C(=O)N[C@@H](CCC(N)=O)C(=O)N[C@H](C(N)=O)C(C)C)[C@@H](C)CC)[C@@H](C)CC)C(=O)O [compound 213] (H-IVLSLD[dV]PIKLK([γGlu-Palmitoyl])QILLKQERQKKQREKAEKNKQILAQV-NH2) | 4.48

More lines, now with the values ahead:

Row | EC50 [nM] | Structure (SMILES)
4 | 0.32 | CCCCCCCCCCCCCCCC(=O)N[C@@H](CCC(=O)NCCOCCOCC(=O)NCCOCCOCC(=O)NCCCC[C@H](NC(=O)[C@H](CC(C)C)NC(=O)[C@H](CCCCN)NC(=O)[C@@H](NC(=O)[C@@H]1CCCN1C(=O)[C@H](NC(=O)[C@H](CC(=O)O)NC(=O)[C@H](CC(C)C)NC(=O)[C@H](CO)NC(=O)[C@H](CC(C)C)NC(=O)[C@@H](NC(=O)[C@@H](N)[C@@H](C)CC)C(C)C)C(C)C)[C@@H](C)CC)C(=O)N[C@@H](CCC(N)=O)C(=O)N[C@H](C(=O)N[C@@H](CC(C)C)C(=O)N[C@@H](CC(C)C)C(=O)N[C@@H](CCCCN)C(=O)N[C@@H](CCC(N)=O)C(=O)N[C@@H](CCC(=O)O)C(=O)N[C@@H](CCCNC(=N)N)C(=O)N[C@@H](CCC(N)=O)C(=O)N[C@@H](CCCCN)C(=O)NC(C)(C)C(=O)N[C@@H](CCC(N)=O)C(=O)N[C@@H](CCCNC(=N)N)C(=O)N[C@@H](CCC(=O)O)C(=O)N[C@@H](CCC(N)=O)C(=O)N[C@@H](C)C(=O)N[C@@H](CCC(=O)O)C(=O)N[C@@H](CCCCN)C(=O)N[C@@H](CC(N)=O)C(=O)N[C@@H](CCCCN)C(=O)N[C@@H](CCC(N)=O)C(=O)N[C@H](C(=O)N[C@@H](CC(C)C)C(=O)N[C@@H](C)C(=O)N[C@@H](CCC(N)=O)C(=O)N[C@H](C(N)=O)C(C)C)[C@@H](C)CC)[C@@H](C)CC)C(=O)O [compound 205] (H-IVLSLD[dV]PIKLK([AEEA-AEEA-γGlu-Palmitoyl])QILLKQERQK[Aib]QREQAEKNKQILAQV-NH2; N-terminus assumed)
5 | 0.09 | CCCCCCCCCCCCCCCC(=O)N[C@@H](CCC(=O)N[C@@H](CCC(=O)NCCOCCOCC(=O)NCCOCCOCC(=O)NCCCC[C@H](NC(=O)[C@H](CC(C)C)NC(=O)[C@H](CCCCN)NC(=O)[C@@H](NC(=O)[C@@H]1CCCN1C(=O)[C@H](NC(=O)[C@H](CC(=O)O)NC(=O)[C@H](CC(C)C)NC(=O)[C@H](CO)NC(=O)[C@H](CC(C)C)NC(=O)[C@@H](NC(=O)[C@@H](N)[C@@H](C)CC)C(C)C)C(C)C)[C@@H](C)CC)C(=O)N[C@@H](CCC(N)=O)C(=O)N[C@H](C(=O)N[C@@H](CC(C)C)C(=O)N[C@@H](CC(C)C)C(=O)N[C@@H](CCCCN)C(=O)N[C@@H](CCC(N)=O)C(=O)N[C@@H](CCC(=O)O)C(=O)N[C@@H](CCCNC(=N)N)C(=O)N[C@@H](CCC(N)=O)C(=O)N[C@@H](CCCCN)C(=O)NC(C)(C)C(=O)N[C@@H](CCC(N)=O)C(=O)N[C@@H](CCCNC(=N)N)C(=O)N[C@@H](CCC(=O)O)C(=O)N[C@@H](CCC(N)=O)C(=O)N[C@@H](C)C(=O)N[C@@H](CCC(=O)O)C(=O)N[C@@H](CCCCN)C(=O)N[C@@H](CC(N)=O)C(=O)N[C@@H](CCCCN)C(=O)N[C@@H](CCC(N)=O)C(=O)N[C@H](C(=O)N[C@@H](CC(C)C)C(=O)N[C@@H](C)C(=O)N[C@@H](CCC(N)=O)C(=O)N[C@H](C(N)=O)C(C)C)[C@@H](C)CC)[C@@H](C)CC)C(=O)O)C(=O)O [compound 206] (H-IVLSLD[dV]PIKLK([AEEA-AEEA-γGlu-γGlu-Palmitoyl])QILLKQERQK[Aib]QREQAEKNKQILAQV-NH2; N-terminus assumed)
